Consider 7 molecules from PubChem BioAssay (NCI).

Some test systems named below: 786-0 renal; ACHN renal; CCRF-CEM leukemia; HCT-15 colon; HOP-92 NSCLC; KM12 colon; M14 melanoma; NCI-H23 lung; NCI-H522 lung; OVCAR-3 ovarian; OVCAR-5 ovarian; OVCAR-8 ovarian; SF-268 CNS; SF-539 CNS; SK-MEL-28 melanoma; SK-MEL-5 melanoma; SK-OV-3 ovarian; SNB-19 CNS; T-47D breast.
What all share (assay): NCI anticancer screen, dose series, 48 h

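Growth conditions: 96-well plates. Treatment: test compound, 48 hours, 5 concentrations. Analysis: linear interpolation between bracketing concentrations; unreached endpoints set to highest concentration. TGI: concentration producing complete growth inhibition.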 A value given as a limit tells only on which side of the number the result lay.

Take `O=C(c1ccsc1)c1cc2c(s1)C(=O)c1ccsc1C2=O`: the TGI with 786-0 renal was 0.356 µM; in the assay with ACHN renal it was 0.241 µM; with CCRF-CEM leukemia, more than 100 µM; in the assay on HCT-15 colon it was 0.305 µM; in the assay with HOP-92 NSCLC it was 1.25 µM; in the assay on KM12 colon it was 0.434 µM. The TGI in the assay with M14 melanoma came to 0.247 µM; in the assay with NCI-H23 lung, 0.308 µM; in the assay on NCI-H522 lung, 0.323 µM; in the assay on OVCAR-3 ovarian, 0.392 µM; in the assay on OVCAR-5 ovarian it was 1.01 µM; with OVCAR-8 ovarian, 0.424 µM. The TGI was 0.405 µM with SF-268 CNS; 0.138 µM in the assay on SF-539 CNS; 0.305 µM in the assay on SK-MEL-28 melanoma; 0.104 µM with SK-MEL-5 melanoma; 3.09 µM in the assay on SK-OV-3 ovarian; 0.354 µM in the assay with SNB-19 CNS. In addition, the TGI with T-47D breast was found to be 0.675 µM.
In the case of `CC(C)(C)OC(=O)N1C[C@H](CC(=O)OCc2ccccc2)C[C@H]1C(=O)OCC(Cl)(Cl)Cl`, the TGI was more than 50 µM in the assay on 786-0 renal; more than 50 µM with ACHN renal; more than 50 µM with CCRF-CEM leukemia; more than 50 µM with HCT-15 colon; 21.5 µM with HOP-92 NSCLC; more than 50 µM with KM12 colon. Also, the TGI in the assay with M14 melanoma was more than 50 µM; in the assay with NCI-H23 lung, more than 50 µM; in the assay with NCI-H522 lung, 13.6 µM; in the assay on OVCAR-3 ovarian it was 32.9 µM; in the assay on OVCAR-5 ovarian, more than 50 µM; with OVCAR-8 ovarian it was more than 50 µM. The TGI in the assay on SF-268 CNS is more than 50 µM; with SF-539 CNS, more than 50 µM; with SK-MEL-28 melanoma, more than 50 µM; in the assay on SK-MEL-5 melanoma, 8.13 µM; in the assay with SK-OV-3 ovarian it was more than 50 µM; with SNB-19 CNS it was more than 50 µM. This molecule returned a TGI with T-47D breast of more than 50 µM.
Regarding `O=C(O)c1cnccc1-c1cc(=O)[nH]n1-c1ccccc1`, the TGI in the assay on 786-0 renal, in the assay with ACHN renal, with CCRF-CEM leukemia, in the assay with HCT-15 colon, in the assay on HOP-92 NSCLC and in the assay on KM12 colon was more than 100 µM throughout. Moreover, the TGI with M14 melanoma, with NCI-H23 lung, in the assay with NCI-H522 lung, with OVCAR-3 ovarian, with OVCAR-5 ovarian and in the assay with OVCAR-8 ovarian was more than 100 µM each time. Also, the TGI in the assay with SF-268 CNS is more than 100 µM; in the assay with SF-539 CNS, more than 71.2 µM; with SK-MEL-28 melanoma, more than 78.2 µM; in the assay on SK-MEL-5 melanoma, more than 100 µM; with SK-OV-3 ovarian, more than 100 µM; in the assay with SNB-19 CNS, more than 100 µM. Moreover, the TGI in the assay with T-47D breast was more than 100 µM.
For the molecule `C/C(Sc1ccccc1)=C1/CCCN(Cc2ccccc2)C1`, the TGI is 50.3 µM in the assay on 786-0 renal; more than 100 µM in the assay with ACHN renal; 46.4 µM with CCRF-CEM leukemia; 42.5 µM with HCT-15 colon; 51.9 µM in the assay on HOP-92 NSCLC; 98.2 µM in the assay with KM12 colon. For the same molecule, the TGI with M14 melanoma was 35 µM; in the assay with NCI-H23 lung, 79.5 µM; in the assay with NCI-H522 lung, 38.8 µM; in the assay with OVCAR-3 ovarian, 38.8 µM; in the assay on OVCAR-5 ovarian, 67.5 µM; in the assay on OVCAR-8 ovarian it was more than 100 µM. The TGI is more than 100 µM in the assay on SF-268 CNS; more than 100 µM in the assay with SF-539 CNS; 83 µM with SK-MEL-28 melanoma; 28.6 µM with SK-MEL-5 melanoma; more than 100 µM with SK-OV-3 ovarian; more than 100 µM with SNB-19 CNS. This molecule showed a TGI in the assay on T-47D breast of 33.5 µM.
As to `CCOC(=O)c1c(N2CCOCC2)[nH]c(=O)c(C(c2c(O)c(C(=O)OCC)c(N3CCOCC3)[nH]c2=O)C(C)C)c1O`, the TGI in the assay on 786-0 renal, with ACHN renal, in the assay with CCRF-CEM leukemia, with HCT-15 colon, with HOP-92 NSCLC and in the assay on KM12 colon was more than 100 µM in each case. In addition, the TGI with M14 melanoma, in the assay on NCI-H23 lung, with NCI-H522 lung, in the assay on OVCAR-3 ovarian, with OVCAR-5 ovarian and in the assay on OVCAR-8 ovarian was more than 100 µM throughout. Further, the TGI in the assay on SF-268 CNS, in the assay on SF-539 CNS, in the assay on SK-MEL-28 melanoma, in the assay on SK-MEL-5 melanoma, in the assay on SK-OV-3 ovarian and in the assay with SNB-19 CNS was more than 100 µM each time. In the assay with T-47D breast, this molecule displayed a TGI of more than 100 µM.
Turning to `C/C(=N/NC(=S)N1CCCCCC1)c1ccccc1O`, the TGI was 39.3 µM in the assay with 786-0 renal; 39 µM in the assay on ACHN renal; more than 30.8 µM with CCRF-CEM leukemia; more than 100 µM in the assay on HCT-15 colon; more than 100 µM in the assay on HOP-92 NSCLC; more than 53.7 µM in the assay on KM12 colon. The TGI is 11 µM in the assay with M14 melanoma; more than 100 µM with NCI-H23 lung; more than 53.2 µM in the assay on NCI-H522 lung; more than 40.9 µM with OVCAR-3 ovarian; more than 100 µM in the assay with OVCAR-5 ovarian; more than 100 µM in the assay with OVCAR-8 ovarian. Also, the TGI with SF-268 CNS was more than 24.5 µM; in the assay on SF-539 CNS it was 28.5 µM; in the assay on SK-MEL-28 melanoma, more than 100 µM; in the assay with SK-MEL-5 melanoma it was more than 37.7 µM; in the assay with SK-OV-3 ovarian, more than 100 µM; in the assay on SNB-19 CNS, more than 100 µM. In the assay with T-47D breast, the TGI was more than 33.6 µM.
Regarding `CCOC(=O)c1c(Nc2ccccc2)sc2cccnc12`, the TGI with 786-0 renal was 48.3 µM; in the assay with ACHN renal, more than 88 µM; in the assay on CCRF-CEM leukemia, 71.5 µM; in the assay on HCT-15 colon, 58.3 µM; in the assay with HOP-92 NSCLC, more than 29.3 µM; in the assay with KM12 colon it was 37.6 µM. Besides, the TGI is 26.4 µM in the assay on M14 melanoma; 67.2 µM in the assay with NCI-H23 lung; more than 58.4 µM with NCI-H522 lung; 48.7 µM in the assay with OVCAR-3 ovarian; 79.4 µM in the assay on OVCAR-5 ovarian; 64 µM with OVCAR-8 ovarian. Besides, the TGI was 64.1 µM in the assay with SF-268 CNS; 23.6 µM in the assay with SF-539 CNS; 63 µM in the assay on SK-MEL-28 melanoma; 24.3 µM with SK-MEL-5 melanoma; more than 89.9 µM with SK-OV-3 ovarian; more than 86.4 µM in the assay on SNB-19 CNS. Besides, the TGI with T-47D breast was more than 100 µM.
